The source of these data is US8728977B2, “Herbicidal combinations comprising tefuryltrione for use in rice crops” (Bayer Cropscience AG, priority 2009, dated 2014).

The subject of the assay is LEFCH (Leptochloa chinensis). Put plainly: Post-emergence action against LEFCH (greenhouse pot test, visual evaluation). The class given is in vivo. Conditions: for pest or weed control at 50 g/ha: read-out: Action against LEFCH. How it is done:
The herbicidal activity of the active substances or active substance mixtures was evaluated visually from the treated variants in comparison with untreated control variants. In this connection, damage to and development of all plant parts above ground was included. The evaluation was carried out according to a percentage scale (100% action=all plants dead; 50% action=50% of the plants and green plant parts dead; 0% action=no recognizable action=as untreated control plot).
Seeds or root pieces of mono- and dicotyledonous weeds are placed in sandy clay soil in pots, covered with earth and secured in a greenhouse under good growing conditions (temperature, air humidity, water supply). Approximately three weeks after sowing, the test plants are treated with the compositions according to the invention. The compositions according to the invention formulated as wettable powders or as emulsion concentrates are sprayed, in spray application, on to the green plant parts in different dosages with a water application rate of 600 to 800 I/ha (corrected). Immediately up to a few days after application, the test receptacles accumulate water over the ground surface by up to 30 mm. With the water application (submerged application), on the other hand, the ground in the closed test receptacle is already covered with the paddy water up to 30 mm at the time of the application. The formulated active substances are here added directly to the paddy water. After an exposure time of the test plants in the greenhouse of an additional 3 to 4 weeks under optimum growing conditions, the effect of the preparations is evaluated visually in comparison with untreated controls. […] In this connection, actions of the combinations according to the invention which exceed the formal sum of the actions of the herbicides when applied individually are frequently observed. The values observed for the tests show, with suitable low dosages, an action of the combinations which lies above the expected values according to Colby.
If the observed activity values already exceed the formal sum of the values for the tests with individual applications, then they likewise exceed the expected value according to Colby, which is calculated according to the following formula and is likewise regarded as an indication of synergy (cf. S. R. Colby in Weeds, 15 (1967), pp. 20 to 22):
[formula] In this connection: • A, B=action of the component A or B in percent at a dosage of a or b grams ai/ha. • E=expected value in % at a dosage of a+b grams ai/ha.
The abbreviation LEFCH is the harmful plant Leptochloa chinensis.

[1] abbreviates: dosage 12.5 g/ha, single herbicide.
Setting [2] is: dosage 50 g/ha, single herbicide.
[3] abbreviates: Dinebra chinensis, dosage 50 g/ha, single herbicide.
The mark [4] stands for this setting: dosage 2.5 g/ha, single herbicide.
[5] abbreviates: dosage 75 g/ha, single herbicide.

Read-outs that look alike come from different tables or passages of the source.

In the case of `CC(C)c1nn(C(=O)NC(C)(C)C)c(=O)n1N` [Compound B1, amicarbazone], under setting [1], the “Action against LEFCH” value was 10%.

As to `Nc1cc(Cl)nc(C(=O)O)c1Cl` [Compound B2, aminopyralid], the “Action against LEFCH” value (dosage 7.5 g/ha, single herbicide) stood at 30%. As for `COC(=O)c1nc(C2CC2)nc(N)c1Cl` [Compound B3, aminocyclopyrachlor-methyl], the “Action against LEFCH” value under setting [2] is recorded as 10%. With `COc1cc(OC)nc(NC(=O)NS(=O)(=O)Nc2ccccc2C(=O)C2CC2)n1` [Compound B4, cyclosulfamuron], the pest or weed control at 50 g/ha under setting [3] came out at 20%. Consider `Cc1ccc2c(c1)[C@H](Nc1nc(N)nc(C(C)F)n1)[C@@H](C)C2` (stereo partly shown) [Compound B5, indaziflam], for which, under setting [4], the “Action against LEFCH” value is on record as 25%. The same measure, in the same setting: then `COCC(=O)OC(c1ncccc1S(=O)(=O)NC(=O)Nc1nc(OC)cc(OC)n1)C(C)F` (stereo not shown) [Compound B6, flucetosulfuron], with 20%. For `CC(C)N(C(=O)n1cnn(-c2ccc(Cl)cc2Cl)c1=O)c1ccc(F)cc1F` [Compound B7, ipfencarbazone], the “Action against LEFCH” value under setting [2] was 25%.

`C[C@@H](Oc1ccc(Oc2nc3ccc(Cl)cc3o2)cc1)C(=O)N(C)c1ccccc1F` [Compound B8, metamifop]: the “Action against LEFCH” value under setting [5] was 15%. Consider `COc1cc(OC)nc(NC(=O)NS(=O)(=O)Nc2ccccc2C(=O)N(C)C)n1` [Compound B9, orthosulfamuron], for which the “Action against LEFCH” value (dosage 30 g/ha, single herbicide) is reported as 40%. As to `COc1cnc(OC)n2nc(NS(=O)(=O)c3c(OCC(F)F)cccc3C(F)(F)F)nc12` [Compound B10, penoxsulam], the pest or weed control at 15 g/ha (Dinebra chinensis, dosage 15 g/ha, single herbicide) stood at 20%. With `CCc1cc(C)cc(CC)c1-c1c(OC(=O)C(C)(C)C)n2n(c1=O)CCOCC2` [Compound B11, pinoxaden], for the setting “Dinebra chinensis, dosage 10 g/ha, single herbicide”, the pest or weed control at 10 g/ha was 15%. Regarding `CCCc1ccc2nc(Cl)c(S(=O)(=O)NC(=O)Nc3nc(OC)cc(OC)n3)n2n1` [Compound B12, propyrisulfuron], under setting [2], the “Action against LEFCH” value is given as 30%. Consider `C#CCN(C)c1c(C#N)cnn1-c1nn2c(c1Cl)CCCC2` [Compound B13, pyraclonil], for which the “Action against LEFCH” value under setting [5] was found to be 30%.

Take `Cc1nn(C)c(O)c1C(=O)c1ccc(C(F)(F)F)cc1S(C)(=O)=O` [Compound B14, pyrasulfotole]: the “Action against LEFCH” value under setting [1] is listed as 30%. As for `COCc1cccc(C(O)c2nc(OC)cc(OC)n2)c1NS(=O)(=O)C(F)F` (stereo not shown) [Compound B15, pyrimisulfan], the “Action against LEFCH” value under setting [2] worked out at 20%. Turning to `Cn1nc(C(F)(F)F)c(CS(=O)(=O)C2=NOC(C)(C)C2)c1OC(F)F` [Compound B17, pyroxasulfone], the pest or weed control at 7.5 g/ha (Dinebra chinensis, dosage 7.5 g/ha, single herbicide) was 15%. For the compound `COc1cc(OC)n2nc(NS(=O)(=O)c3c(C(F)(F)F)ccnc3OC)nc2n1` [Compound B18, pyroxsulam], for the setting “dosage 15 g/ha, single herbicide”, the “Action against LEFCH” value is listed as 20%. In the case of `CC(C)N(C)S(=O)(=O)NC(=O)c1cc(-n2c(=O)cc(C(F)(F)F)n(C)c2=O)c(F)cc1Cl` [Compound B19, saflufenacil], the pest or weed control at 3 g/ha (Dinebra chinensis, dosage 3 g/ha, single herbicide) was 8%. In the case of `COc1cc(OC)nc(NC(=O)NS(=O)(=O)c2c(C3=NOCC(C)O3)c(Cl)nn2C)n1` (stereo not shown) [Compound B20, 3-chloro-N-[(4,6-dimethoxypyrimidin-2-yl)carbamoyl]-1-methyl-4-(5-methyl-5,6-dihydro-1,4,2-dioxazin-3-yl)-1H-pyrazole-5-sulfonamide], under setting [3], the pest or weed control at 50 g/ha amounted to 15%. For the compound `COC(=O)c1nc(-c2ccc(Cl)c(OC)c2F)cc(N)c1Cl` [Compound B22, methyl 4-amino-3-chloro-6-(4-chloro-2-fluoro-3-methoxyphenyl)pyridine-2-carboxylate], where the note is “Dinebra chinensis”, the pest or weed control at 50 g/ha was determined as 10%. Turning to `COCCOCc1nc(C(F)(F)F)ccc1C(=O)C1C(=O)C2CCC(C2)C1=O` (stereo not shown) [Compound B23, 3-({2-[(2-methoxyethoxy)methyl]-6-(trifluoromethyl)pyridin-3-yl}-carbonyl)bicyclo[3.2.1]octane-2,4-dione], the pest or weed control at 12.5 g/ha (Dinebra chinensis, dosage 12.5 g/ha, single herbicide) came to 25%. In the case of `CS(=O)(=O)c1ccc(C(=O)C2C(=O)CCCC2=O)c(Cl)c1COCC1CCCO1` (stereo not shown) [tefuryltrione], under setting [2], the “Action against LEFCH” value is given as 20%.
